Organism: Rattus norvegicus
Test: Open TG-GATES - Regimen: Daily Repeat
Type: toxicity, organism-based, Sprague-Dawley
Parameters: regimen Daily Repeat, gender Male, age 6 weeks
Details: in vivo, po, 4000 mg/kg, route gavage, dose level High; for APTT / Bas / Eos / Fbg / Hb / Ht / Lym / MCH / MCHC / MCV / Mono / Neu / PT / Plat / RBC / Ret / WBC: tissue Blood; for KIDNEY_L / KIDNEY_R / KIDNEY_TOTAL: tissue Kidney; for LIVER: tissue Liver; for A/G / ALP / ALT / AST / BUN / CRE / Ca / Cl / DBIL / GLC / IP / K / LDH / Na / PL / RALB / TBIL / TC / TG / TP / gamma-GTP: tissue Plasma

In the case of `CCO` [ALCOHOL], the TERMINAL_BW (72 h, time 3 day) is reported as 222.6 g, the APTT (72 h, time 3 day) is reported as 17.5 s and the Bas (72 h, time 3 day) is reported as 0%. For the same molecule, the Eos (72 h, time 3 day) was 1.4%, the Fbg (72 h, time 3 day) was 223.4 mg/dL and the Hb (72 h, time 3 day) was 14 g/dL. It also gave a Ht (72 h, time 3 day) of 41.5%, a Lym (72 h, time 3 day) of 78% and an MCH (72 h, time 3 day) of 20.9 pg. The MCHC (72 h, time 3 day) was 33.7%, the MCV (72 h, time 3 day) was 62.1 fL and the Mono (72 h, time 3 day) was 5.6%. The Neu (72 h, time 3 day) was 15.8%, the PT (72 h, time 3 day) was 11.3 s and the Plat (72 h, time 3 day) was 129.6 x10_4/uL. It also gave an RBC (72 h, time 3 day) of 669.2 x10_4/ul, a Ret (72 h, time 3 day) of 5.5% and a WBC (72 h, time 3 day) of 91 x10_2/uL. The KIDNEY_L (72 h, time 3 day) was 1 g, the KIDNEY_R (72 h, time 3 day) was 1 g and the KIDNEY_TOTAL (72 h, time 3 day) was 2 g. The LIVER (72 h, time 3 day) was 10.5 g, the A/G (72 h, time 3 day) was 2.3 and the ALP (72 h, time 3 day) was 775 IU/L. It also gave an ALT (72 h, time 3 day) of 32 IU/L, an AST (72 h, time 3 day) of 61 IU/L and a BUN (72 h, time 3 day) of 16.8 mg/dL. For the same molecule, the CRE (72 h, time 3 day) was 0.5 mg/dL, the Ca (72 h, time 3 day) was 10.7 mg/dL and the Cl (72 h, time 3 day) was 103.6 meq/L. It also gave a DBIL (72 h, time 3 day) of 0.022 mg/dL, a GLC (72 h, time 3 day) of 206 mg/dL and an IP (72 h, time 3 day) of 8.2 mg/dL. It also gave a K (72 h, time 3 day) of 4.7 meq/L, an LDH (72 h, time 3 day) of 95.2 IU/L and a Na (72 h, time 3 day) of 140 meq/L. It also gave a PL (72 h, time 3 day) of 146.4 mg/dL, an RALB (72 h, time 3 day) of 4 g/dL and a TBIL (72 h, time 3 day) of 0.3 mg/dL. It also gave a TC (72 h, time 3 day) of 77.6 mg/dL, a TG (72 h, time 3 day) of 124.4 mg/dL and a TP (72 h, time 3 day) of 5.7 g/dL. For the same molecule, the gamma-GTP (72 h, time 3 day) was 1.4 IU/L, the TERMINAL_BW ([…], time 7 day) was 252.2 g and the TERMINAL_BW ([…], time 14 day) was 307.3 g. It also gave a TERMINAL_BW ([…], time 28 day) of 369.5 g, an APTT ([…], time 7 day) of 18.2 s and a Bas ([…], time 7 day) of 0%. The Eos ([…], time 7 day) was 1%, the Fbg ([…], time 7 day) was 216.8 mg/dL and the Hb ([…], time 7 day) was 14.1 g/dL. For the same molecule, the Ht ([…], time 7 day) was 41.6%, the Lym ([…], time 7 day) was 71% and the MCH ([…], time 7 day) was 20.7 pg. The MCHC ([…], time 7 day) was 33.8%, the MCV ([…], time 7 day) was 61.1 fL and the Mono ([…], time 7 day) was 6.4%. The Neu ([…], time 7 day) was 21.8%, the PT ([…], time 7 day) was 11.5 s and the Plat ([…], time 7 day) was 110.2 x10_4/uL. For the same molecule, the RBC ([…], time 7 day) was 680.2 x10_4/ul, the Ret ([…], time 7 day) was 5.4% and the WBC ([…], time 7 day) was 93.3 x10_2/uL. The APTT ([…], time 14 day) was 16.8 s, the Bas ([…], time 14 day) was 0% and the Eos ([…], time 14 day) was 0.8%. For the same molecule, the Fbg ([…], time 14 day) was 217.6 mg/dL, the Hb ([…], time 14 day) was 15 g/dL and the Ht ([…], time 14 day) was 45%. It also gave a Lym ([…], time 14 day) of 82.8%, an MCH ([…], time 14 day) of 20.4 pg and an MCHC ([…], time 14 day) of 33.3%. It also gave an MCV ([…], time 14 day) of 61.2 fL, a Mono ([…], time 14 day) of 5% and a Neu ([…], time 14 day) of 11.4%. For the same molecule, the PT ([…], time 14 day) was 11.5 s, the Plat ([…], time 14 day) was 112.1 x10_4/uL and the RBC ([…], time 14 day) was 737 x10_4/ul. For the same molecule, the Ret ([…], time 14 day) was 4.1%, the WBC ([…], time 14 day) was 125 x10_2/uL and the APTT ([…], time 28 day) was 16.3 s. For the same molecule, the Bas ([…], time 28 day) was 0%, the Eos ([…], time 28 day) was 1.6% and the Fbg ([…], time 28 day) was 210.6 mg/dL. For the same molecule, the Hb ([…], time 28 day) was 15.5 g/dL, the Ht ([…], time 28 day) was 46.4% and the Lym ([…], time 28 day) was 70.4%. For the same molecule, the MCH ([…], time 28 day) was 19.2 pg, the MCHC ([…], time 28 day) was 33.5% and the MCV ([…], time 28 day) was 57.2 fL. It also gave a Mono ([…], time 28 day) of 7.6%, a Neu ([…], time 28 day) of 20.6% and a PT ([…], time 28 day) of 11.4 s. The Plat ([…], time 28 day) was 106.5 x10_4/uL, the RBC ([…], time 28 day) was 813.2 x10_4/ul and the Ret ([…], time 28 day) was 6%. It also gave a WBC ([…], time 28 day) of 123.4 x10_2/uL, a KIDNEY_L ([…], time 7 day) of 1.1 g and a KIDNEY_R ([…], time 7 day) of 1.1 g. For the same molecule, the KIDNEY_TOTAL ([…], time 7 day) was 2.1 g, the KIDNEY_L ([…], time 14 day) was 1.2 g and the KIDNEY_R ([…], time 14 day) was 1.2 g. The KIDNEY_TOTAL ([…], time 14 day) was 2.5 g, the KIDNEY_L ([…], time 28 day) was 1.3 g and the KIDNEY_R ([…], time 28 day) was 1.3 g. It also gave a KIDNEY_TOTAL ([…], time 28 day) of 2.7 g, an LIVER ([…], time 7 day) of 11.7 g and an LIVER ([…], time 14 day) of 13.6 g. It also gave an LIVER ([…], time 28 day) of 15 g, an A/G ([…], time 7 day) of 2.4 and an ALP ([…], time 7 day) of 842.2 IU/L. It also gave an ALT ([…], time 7 day) of 32.6 IU/L, an AST ([…], time 7 day) of 63 IU/L and a BUN ([…], time 7 day) of 17 mg/dL. The CRE ([…], time 7 day) was 0.5 mg/dL, the Ca ([…], time 7 day) was 10.6 mg/dL and the Cl ([…], time 7 day) was 103.8 meq/L. For the same molecule, the DBIL ([…], time 7 day) was 0 mg/dL, the GLC ([…], time 7 day) was 206.8 mg/dL and the IP ([…], time 7 day) was 8.1 mg/dL. For the same molecule, the K ([…], time 7 day) was 4.4 meq/L, the LDH ([…], time 7 day) was 92.2 IU/L and the Na ([…], time 7 day) was 141.2 meq/L. The PL ([…], time 7 day) was 145.6 mg/dL, the RALB ([…], time 7 day) was 4.1 g/dL and the TBIL ([…], time 7 day) was 0.3 mg/dL. For the same molecule, the TC ([…], time 7 day) was 68.2 mg/dL, the TG ([…], time 7 day) was 99.6 mg/dL and the TP ([…], time 7 day) was 5.9 g/dL. The gamma-GTP ([…], time 7 day) was 1.4 IU/L, the A/G ([…], time 14 day) was 1.9 and the ALP ([…], time 14 day) was 806.4 IU/L. It also gave an ALT ([…], time 14 day) of 37.8 IU/L, an AST ([…], time 14 day) of 71.4 IU/L and a BUN ([…], time 14 day) of 18.6 mg/dL. For the same molecule, the CRE ([…], time 14 day) was 0.6 mg/dL, the Ca ([…], time 14 day) was 10.8 mg/dL and the Cl ([…], time 14 day) was 104.2 meq/L. It also gave a DBIL ([…], time 14 day) of 0.05 mg/dL, a GLC ([…], time 14 day) of 207.2 mg/dL and an IP ([…], time 14 day) of 7.9 mg/dL. The K ([…], time 14 day) was 4.5 meq/L, the LDH ([…], time 14 day) was 121.4 IU/L and the Na ([…], time 14 day) was 141.6 meq/L. The PL ([…], time 14 day) was 160.8 mg/dL, the RALB ([…], time 14 day) was 3.9 g/dL and the TBIL ([…], time 14 day) was 0.3 mg/dL. For the same molecule, the TC ([…], time 14 day) was 78.8 mg/dL, the TG ([…], time 14 day) was 143 mg/dL and the TP ([…], time 14 day) was 6 g/dL. For the same molecule, the gamma-GTP ([…], time 14 day) was 1 IU/L, the A/G ([…], time 28 day) was 1.8 and the ALP ([…], time 28 day) was 599.4 IU/L. It also gave an ALT ([…], time 28 day) of 34.6 IU/L, an AST ([…], time 28 day) of 66.6 IU/L and a BUN ([…], time 28 day) of 19.6 mg/dL. For the same molecule, the CRE ([…], time 28 day) was 0.6 mg/dL, the Ca ([…], time 28 day) was 10.3 mg/dL and the Cl ([…], time 28 day) was 107 meq/L. The DBIL ([…], time 28 day) was 0.006 mg/dL, the GLC ([…], time 28 day) was 213.6 mg/dL and the IP ([…], time 28 day) was 6.2 mg/dL. The K ([…], time 28 day) was 4.5 meq/L, the LDH ([…], time 28 day) was 89.6 IU/L and the Na ([…], time 28 day) was 140.4 meq/L. It also gave a PL ([…], time 28 day) of 153.6 mg/dL, an RALB ([…], time 28 day) of 3.9 g/dL and a TBIL ([…], time 28 day) of 0.3 mg/dL. For the same molecule, the TC ([…], time 28 day) was 73.2 mg/dL, the TG ([…], time 28 day) was 173.4 mg/dL and the TP ([…], time 28 day) was 6.1 g/dL. The gamma-GTP ([…], time 28 day) was 1.4 IU/L.

— ChEMBL document CHEMBL3885861, “Open TG-GATES”
